Results as given in PubChem BioAssay (NCI).
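A five-concentration, 48-hour dose response in 96-well plates underlies each endpoint, interpolated linearly between surrounding concentrations. The concentration for 50% growth inhibition is given as GI50. TGI denotes the concentration required for complete inhibition of growth.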

What was measured:
Experiment in all cases: DTP human tumour cell line panel, 48 h
OVCAR-4 ovarian = tested on: OVCAR-4 ovarian
A549 NSCLC = tested on: A549 NSCLC
HS 578T breast = tested on: HS 578T breast
HT29 colon = tested on: HT29 colon
OVCAR-5 ovarian = tested on: OVCAR-5 ovarian
SK-MEL-5 melanoma = tested on: SK-MEL-5 melanoma
BT-549 breast = tested on: BT-549 breast
SK-OV-3 ovarian = tested on: SK-OV-3 ovarian
SNB-19 CNS = tested on: SNB-19 CNS
NCI-H460 lung = tested on: NCI-H460 lung

O=C(c1c(F)c(F)c(F)c(F)c1F)c1c(F)c(F)c(F)c(F)c1F
TGI (OVCAR-4 ovarian): 3.14 µM
TGI (A549 NSCLC): 15.4 µM
TGI (HS 578T breast): > 26.6 µM
TGI (HT29 colon): 3.08 µM
TGI (OVCAR-5 ovarian): 3.65 µM
TGI (SK-MEL-5 melanoma): 8.24 µM
TGI (BT-549 breast): 6.68 µM
TGI (SK-OV-3 ovarian): 5.57 µM
TGI (SNB-19 CNS): 16.3 µM
TGI (NCI-H460 lung): 5.24 µM

CN1C(=O)CCC(N2C(=O)c3cccc(NCCOCCOCCNC(=O)c4cc5c(o4)C(=O)c4ccccc4C5=O)c3C2=O)C1=O (stereo not given)
GI50 (OVCAR-4 ovarian): 1.43 µM
TGI (OVCAR-4 ovarian): 2.8 µM
GI50 (A549 NSCLC): 1.99 µM
TGI (A549 NSCLC): 4.49 µM
GI50 (HS 578T breast): 2.7 µM
TGI (HS 578T breast): 7.46 µM
GI50 (HT29 colon): 2.66 µM
TGI (HT29 colon): 6.98 µM
GI50 (OVCAR-5 ovarian): 1.76 µM
TGI (OVCAR-5 ovarian): 3.17 µM
GI50 (SK-MEL-5 melanoma): 0.242 µM
TGI (SK-MEL-5 melanoma): 0.652 µM
GI50 (BT-549 breast): 1.38 µM
TGI (BT-549 breast): 2.7 µM
GI50 (SK-OV-3 ovarian): 3.84 µM
TGI (SK-OV-3 ovarian): 12.4 µM
GI50 (SNB-19 CNS): 1.58 µM
TGI (SNB-19 CNS): 5.57 µM
GI50 (NCI-H460 lung): 1.33 µM
TGI (NCI-H460 lung): 2.97 µM

CCSC[C@@H]1C[C@](O)(c2ccc(Cl)cc2)[C@@H](c2ccc(Cl)cc2)O1
GI50 (OVCAR-4 ovarian): 16.7 µM
TGI (OVCAR-4 ovarian): 32.1 µM
GI50 (A549 NSCLC): 17.3 µM
TGI (A549 NSCLC): 33.2 µM
GI50 (HS 578T breast): 18 µM
TGI (HS 578T breast): 39.6 µM
GI50 (HT29 colon): 15.6 µM
TGI (HT29 colon): 30.8 µM
GI50 (OVCAR-5 ovarian): 18.2 µM
TGI (OVCAR-5 ovarian): 34.3 µM
GI50 (SK-MEL-5 melanoma): 15.3 µM
TGI (SK-MEL-5 melanoma): 28.7 µM
GI50 (BT-549 breast): 15.2 µM
TGI (BT-549 breast): 28.9 µM
GI50 (SK-OV-3 ovarian): 22.4 µM
TGI (SK-OV-3 ovarian): 60.2 µM
GI50 (SNB-19 CNS): 18.8 µM
TGI (SNB-19 CNS): 50 µM
GI50 (NCI-H460 lung): 17.3 µM
TGI (NCI-H460 lung): 34.1 µM

COc1ccc(Nc2nc(NCCNc3ccnc4cc(Cl)ccc34)nc(N3CCOCC3)n2)cc1
GI50 (OVCAR-4 ovarian): 9 µM
TGI (OVCAR-4 ovarian): 24.5 µM
GI50 (A549 NSCLC): 4.87 µM
TGI (A549 NSCLC): 20.3 µM
GI50 (HS 578T breast): 3.91 µM
TGI (HS 578T breast): 24.1 µM
GI50 (HT29 colon): 1.07 µM
TGI (HT29 colon): 3.75 µM
GI50 (OVCAR-5 ovarian): 15.7 µM
TGI (OVCAR-5 ovarian): 31.4 µM
GI50 (SK-MEL-5 melanoma): 1.59 µM
TGI (SK-MEL-5 melanoma): 3.04 µM
GI50 (BT-549 breast): 9.92 µM
TGI (BT-549 breast): 22.1 µM
GI50 (SK-OV-3 ovarian): 11.7 µM
TGI (SK-OV-3 ovarian): 24.6 µM
GI50 (SNB-19 CNS): 10.6 µM
TGI (SNB-19 CNS): 23.6 µM
GI50 (NCI-H460 lung): 4.58 µM
TGI (NCI-H460 lung): 19.3 µM

CCCc1nn(C)c2c(=O)[nH]c(-c3cc(S(=O)(=O)N4CCN(C)CC4)ccc3OCC)nc12
GI50 (OVCAR-4 ovarian): > 100 µM
TGI (OVCAR-4 ovarian): > 100 µM
GI50 (A549 NSCLC): > 100 µM
TGI (A549 NSCLC): > 100 µM
GI50 (HS 578T breast): 21.6 µM
TGI (HS 578T breast): > 100 µM
GI50 (HT29 colon): > 100 µM
TGI (HT29 colon): > 100 µM
GI50 (OVCAR-5 ovarian): > 100 µM
TGI (OVCAR-5 ovarian): > 100 µM
GI50 (SK-MEL-5 melanoma): > 100 µM
TGI (SK-MEL-5 melanoma): > 100 µM
GI50 (BT-549 breast): > 100 µM
TGI (BT-549 breast): > 100 µM
GI50 (SK-OV-3 ovarian): > 100 µM
TGI (SK-OV-3 ovarian): > 100 µM
GI50 (SNB-19 CNS): > 100 µM
TGI (SNB-19 CNS): > 100 µM
GI50 (NCI-H460 lung): > 100 µM
TGI (NCI-H460 lung): > 100 µM

COc1ccc2cc(-c3cnc4nonc4n3)ccc2c1
GI50 (OVCAR-4 ovarian): 5.99 µM
TGI (OVCAR-4 ovarian): > 100 µM
GI50 (A549 NSCLC): 3.33 µM
TGI (A549 NSCLC): > 100 µM
GI50 (HS 578T breast): 1.23 µM
TGI (HS 578T breast): > 100 µM
GI50 (HT29 colon): 2.97 µM
TGI (HT29 colon): > 100 µM
GI50 (OVCAR-5 ovarian): 6 µM
TGI (OVCAR-5 ovarian): > 100 µM
GI50 (SK-MEL-5 melanoma): 1.24 µM
TGI (SK-MEL-5 melanoma): 8.5 µM
GI50 (BT-549 breast): 4.39 µM
TGI (BT-549 breast): > 100 µM
GI50 (SK-OV-3 ovarian): 10.8 µM
TGI (SK-OV-3 ovarian): > 100 µM
GI50 (SNB-19 CNS): 4.37 µM
TGI (SNB-19 CNS): > 100 µM
GI50 (NCI-H460 lung): 11 µM
TGI (NCI-H460 lung): > 100 µM

O=C1c2ccccc2C(=O)N1CCc1ncc(-c2ccccc2)[nH]1
TGI (OVCAR-4 ovarian): > 100 µM
TGI (A549 NSCLC): > 100 µM
TGI (HS 578T breast): > 100 µM
TGI (HT29 colon): > 100 µM
TGI (OVCAR-5 ovarian): > 100 µM
TGI (SK-MEL-5 melanoma): > 100 µM
TGI (BT-549 breast): > 100 µM
TGI (SK-OV-3 ovarian): > 100 µM
TGI (SNB-19 CNS): > 100 µM
TGI (NCI-H460 lung): > 100 µM

CCOC(=O)C(=Cc1ccc(C#N)cc1)C(=O)OCC
GI50 (OVCAR-4 ovarian): 3.44 µM
TGI (OVCAR-4 ovarian): 12.6 µM
GI50 (A549 NSCLC): 4.11 µM
TGI (A549 NSCLC): 14.5 µM
GI50 (HS 578T breast): 4.19 µM
TGI (HS 578T breast): 37.9 µM
GI50 (HT29 colon): 1.93 µM
TGI (HT29 colon): 3.77 µM
GI50 (OVCAR-5 ovarian): 2.61 µM
TGI (OVCAR-5 ovarian): 11.2 µM
GI50 (SK-MEL-5 melanoma): 1.92 µM
TGI (SK-MEL-5 melanoma): 3.67 µM
GI50 (BT-549 breast): 2.06 µM
TGI (BT-549 breast): 4.9 µM
GI50 (SK-OV-3 ovarian): 9.86 µM
TGI (SK-OV-3 ovarian): 21.5 µM
GI50 (SNB-19 CNS): 2.66 µM
TGI (SNB-19 CNS): 7.7 µM
GI50 (NCI-H460 lung): 4.2 µM
TGI (NCI-H460 lung): 16 µM

Cc1ccc(OP(=O)(Oc2ccc(C)cc2)N2C=Cc3ccccc3C2C#N)cc1 (stereo not given)
TGI (OVCAR-4 ovarian): > 100 µM
TGI (A549 NSCLC): > 100 µM
TGI (HS 578T breast): > 100 µM
TGI (HT29 colon): > 100 µM
TGI (OVCAR-5 ovarian): > 100 µM
TGI (SK-MEL-5 melanoma): > 100 µM
TGI (BT-549 breast): > 100 µM
TGI (SK-OV-3 ovarian): > 100 µM
TGI (SNB-19 CNS): > 100 µM
TGI (NCI-H460 lung): > 100 µM

COc1cc(CCC[P+](c2ccccc2)(c2ccccc2)c2ccccc2)c(OC)c2c1OCO2
GI50 (OVCAR-4 ovarian): 1.08 µM
TGI (OVCAR-4 ovarian): 16.1 µM
GI50 (A549 NSCLC): 3.95 µM
TGI (A549 NSCLC): 68.9 µM
GI50 (HS 578T breast): 1.74 µM
TGI (HS 578T breast): 8.54 µM
GI50 (HT29 colon): 0.812 µM
TGI (HT29 colon): 41 µM
GI50 (OVCAR-5 ovarian): 2.38 µM
TGI (OVCAR-5 ovarian): 37 µM
GI50 (SK-MEL-5 melanoma): 1.21 µM
TGI (SK-MEL-5 melanoma): 2.5 µM
GI50 (BT-549 breast): 1.08 µM
TGI (BT-549 breast): 8.5 µM
GI50 (SK-OV-3 ovarian): 2.02 µM
TGI (SK-OV-3 ovarian): 6.41 µM
GI50 (SNB-19 CNS): 1.17 µM
TGI (SNB-19 CNS): 10.9 µM
GI50 (NCI-H460 lung): 1.81 µM
TGI (NCI-H460 lung): 5.58 µM

COc1ccc2c(c1)CCC1C2CC[C@@]2(C)C1CC[C@@H]2NC(=O)Cc1ccc(O)c(O)c1 (stereo not given in full)
GI50 (OVCAR-4 ovarian): 4.26 µM
TGI (OVCAR-4 ovarian): 18.6 µM
GI50 (A549 NSCLC): 14.6 µM
TGI (A549 NSCLC): 29.9 µM
GI50 (HS 578T breast): 7.22 µM
TGI (HS 578T breast): 43.9 µM
GI50 (HT29 colon): 10.3 µM
TGI (HT29 colon): 25.3 µM
GI50 (OVCAR-5 ovarian): 19.8 µM
TGI (OVCAR-5 ovarian): 37.7 µM
GI50 (SK-MEL-5 melanoma): 8.96 µM
TGI (SK-MEL-5 melanoma): 21.8 µM
GI50 (BT-549 breast): 9.66 µM
TGI (BT-549 breast): 25.5 µM
GI50 (SK-OV-3 ovarian): 16.7 µM
TGI (SK-OV-3 ovarian): 33.4 µM
GI50 (SNB-19 CNS): 13.3 µM
TGI (SNB-19 CNS): 33.4 µM
GI50 (NCI-H460 lung): 12.3 µM
TGI (NCI-H460 lung): 31.9 µM

CSc1ccc(C2=NN(C(C)=O)C(c3ccc(-c4cc(Cl)c(Cl)cc4Cl)o3)C2)cc1 (stereo not given)
GI50 (OVCAR-4 ovarian): 13.4 µM
TGI (OVCAR-4 ovarian): 26.8 µM
GI50 (A549 NSCLC): 17 µM
TGI (A549 NSCLC): 33 µM
GI50 (HS 578T breast): 22.8 µM
TGI (HS 578T breast): 53 µM
GI50 (HT29 colon): 12.9 µM
TGI (HT29 colon): 26.7 µM
GI50 (OVCAR-5 ovarian): 14.3 µM
TGI (OVCAR-5 ovarian): 27.4 µM
GI50 (SK-MEL-5 melanoma): 12.6 µM
TGI (SK-MEL-5 melanoma): 25.1 µM
GI50 (BT-549 breast): 16.6 µM
TGI (BT-549 breast): 30.8 µM
GI50 (SK-OV-3 ovarian): 16.7 µM
TGI (SK-OV-3 ovarian): 38.8 µM
GI50 (SNB-19 CNS): 17.9 µM
TGI (SNB-19 CNS): 32.3 µM
GI50 (NCI-H460 lung): 17.2 µM
TGI (NCI-H460 lung): 32.2 µM

CC1=C(C#N)C23C(=O)N(c4ccccc4)C(=O)C2=C(O)C=CC3(O)N1Cc1ccc(Cl)cc1Cl (stereo not given)
GI50 (OVCAR-4 ovarian): 6.36 µM
TGI (OVCAR-4 ovarian): 19.6 µM
GI50 (A549 NSCLC): 12.2 µM
TGI (A549 NSCLC): 28.5 µM
GI50 (HS 578T breast): 3.13 µM
TGI (HS 578T breast): 11.6 µM
GI50 (HT29 colon): 1.97 µM
TGI (HT29 colon): 4.84 µM
GI50 (OVCAR-5 ovarian): 5 µM
TGI (OVCAR-5 ovarian): 23.4 µM
GI50 (SK-MEL-5 melanoma): 5.19 µM
TGI (SK-MEL-5 melanoma): 17 µM
GI50 (BT-549 breast): 1.46 µM
TGI (BT-549 breast): 3.17 µM
GI50 (SK-OV-3 ovarian): 11.2 µM
TGI (SK-OV-3 ovarian): 23.2 µM
GI50 (SNB-19 CNS): 3.8 µM
TGI (SNB-19 CNS): 14.9 µM
GI50 (NCI-H460 lung): 3.09 µM
TGI (NCI-H460 lung): 12.3 µM
